Measured values reported in patent US9175266B2, “Enhancement of natural killer (NK) cell proliferation and activity” (Gamida Cell Ltd., priority 2012, dated 2015).
“Also recorded” adds a separate entry of the source.

How the values were obtained:
[1] = test system: human peripheral blood NK cells; test: Ex-vivo expansion of T-cell depleted peripheral blood NK cells in culture with cytokines; type: cell-based
Description: For depletion procedure, total nuclear cells from umbilical cord blood (CB), bone marrow (BM) or peripheral blood (PB) cells were layered on a Ficoll-Hypaque gradient (1.077 g/mL; Sigma), and centrifuged at 800×g for 30 minutes for separation of the mononuclear cells. The cells in the interface layer were collected and washed three times in phosphate-buffered saline (PBS) (Biological Industries, Israel) containing 0.5% HSA. Optionally, cells are not separated on the Ficoll-Hypaque gradient but washed three times in phosphate-buffered saline (PBS) (Biological Industries) containing 0.5% HSA (“total mononuclear fraction”). CD3 cells were depleted using the CD3 cell isolation kit (Miltenyi Biotec Bergisch, Gladbach, Germany) and the entire CD3 negative cell fraction was cultured. […] After negative depletion the cells were counted and characterized by FACS analysis. […] To estimate number of cells in culture, cell samples were counted following staining with trypan blue. […] In order to calculate the number of NK cells on day 0, the total number of cells seeded on day 0 was multiplied by the percent of CD56+/CD3− cells measured by the FACS on day 0. […] In order to determine the number of NK cells in culture, the total number of cells in culture was multiplied by the percent of CD56+/CD3− cells measured with the FACS on days 14 or 21. […]

CD3+CD56− cells = test: T-cell fraction (CD3+CD56-) in cultures of T-cell depleted peripheral blood NK cells, by FACS; type: cell-based, human; details: 21 day cultures; SR1 10 to 1000 nM vs cytokines only (SR1 0); FIG. 2
Description: For depletion procedure, total nuclear cells from umbilical cord blood (CB), bone marrow (BM) or peripheral blood (PB) cells were layered on a Ficoll-Hypaque gradient (1.077 g/mL; Sigma), and centrifuged at 800×g for 30 minutes for separation of the mononuclear cells. The cells in the interface layer were collected and washed three times in phosphate-buffered saline (PBS) (Biological Industries, Israel) containing 0.5% HSA. Optionally, cells are not separated on the Ficoll-Hypaque gradient but washed three times in phosphate-buffered saline (PBS) (Biological Industries) containing 0.5% HSA (“total mononuclear fraction”). CD3 cells were depleted using the CD3 cell isolation kit (Miltenyi Biotec Bergisch, Gladbach, Germany) and the entire CD3 negative cell fraction was cultured. […] After negative depletion the cells were counted and characterized by FACS analysis. […] To estimate number of cells in culture, cell samples were counted following staining with trypan blue. […] The cells were then washed in the above buffer and analyzed using a FACScalibur® flow cytometer (Becton Dickinson, San Jose, Calif., USA). […] Emission of 10^4 cells was measured using logarithmic amplification, and analyzed using the CellQuest software (Becton Dickinson). Cells stained with FITC, PE and APC-conjugated isotype control antibodies were used to determine background fluorescence.

PD-1 = PD-1 expression on NK cell surface, by FACS; type: cell-based, human; details: PB derived NK cells; SR1 10-1000 nM, 14 and 21 days, vs cytokines only; FIG. 4B
Source text: (§1) For FACS analysis cells were stained with the following fluorescent antibodies: CD15 FITC, Cat. No. 332778, CD14 FITC, Cat. No. 345784, CD3 APC, Cat. No. 345767, all from Becton Dickinson (San Jose, Calif., USA), CD62L PE, Cat. No. 304806 from BioLegend (San Diego, Calif., USA), CD56 FITC, Cat. No. 11-0569-42 from eBioscience (San Diego, Calif., USA) and CD45 PE, Cat. No. R7807 from Dako (Glostrup, Denmark) and anti-CD200R and anti-PD-1 fluorescent antibodies. The cells were washed with a PBS solution containing 1% BSA, and stained (at 4° C. for 30 min) with fluorescein isothiocyanate (FITC)- or phycoerythrin (PE)-conjugated antibodies or allophycocyanin (APC). The cells were then washed in the above buffer and analyzed using a FACScalibur® flow cytometer (Becton Dickinson, San Jose, Calif., USA). The cells were passed at a rate of up to 1000 cells/second, using a 488 nm or 661 nm argon laser beam as the light source for excitation. Emission of 10^4 cells was measured using logarithmic amplification, and analyzed using the CellQuest software (Becton Dickinson). Cells stained with FITC, PE and APC-conjugated isotype control antibodies were used to determine background fluorescence. […] NK cells were stained with specific antibodies for the specified surface markers (CD62L, CD200R, PD-1) after 3 weeks incubation with SR1, and then monitored by FACS.

CD62L = CD62L expression on NK cell surface, by FACS; type: cell-based, human; details: PB derived NK cells; SR1 10-1000 nM, 14 and 21 days, vs cytokines only; FIG. 3
Source text: as §1

human NK cells = test: In-vivo homing and engraftment of cultured, CFSE-stained human NK cells in spleen of irradiated NSG mice; set-up: species or system NOD.Cg-Prkdcscid Il2rgtm1Wjl/SzJ (NSG) mice; details: 15×10^6 NK cells cultured 2-3 weeks with SR1 vs without; irradiated (350 Rad) NSG mice; 4 days post infusion; FIG. 5
Description: NK cells were expanded with or without 1000 nM SR1, as described above. After 2 weeks in culture, cells were stained with CFSE and similar numbers (15×10^6) of cells were infused into irradiated (350 Rad) NSG mice. Mice were sacrificed 4-days post infusion. Spleens were analyzed for the homing and engraftment of human NK cells based on the CFSE fluorescence, in order to distinguish them from endogenous cells. Engraftment is expressed as the % of cells staining with CFSE. Irradiated (350 Rad) NOD.Cg-Prkdcscid Il2rgtm1Wjl/SzJ (NSG) mice received 15×10^6 cells from human peripheral blood NK (T-cell depleted) cultures maintained for up to 3 weeks with SR1 or without (SR1 0) SR1. Prior to infusion NK cells were stained with CFSE. Upon sacrifice of the mice 4 days post infusion, samples of spleen were evaluated by FACS for the percent of cells that are stained with CFSE.

CD200R = CD200R expression on NK cell surface, by FACS; type: cell-based, human; details: PB derived NK cells; SR1 10-1000 nM, 14 and 21 days, vs cytokines only; FIG. 4A
Source text: as §1

CC(C)n1cnc2c(NCCc3ccc(O)cc3)nc(-c3csc4ccccc34)nc21 [SR1, 4-(2-(2-(benzo[b]thiophen-3-yl)-9-isopropyl-9H-purin-6-ylamino)ethyl)phenol]
cells in culture that were NK (CD56+CD3-) cells ([1]; CD3+ or CD3+/CD19+ depleted peripheral blood mononuclear cells (2-10% NK at seeding), 2-3 weeks in culture with SR1): more than 90% | NK expansion (fold increase relative to day 0) ([1]; day 21, SR1 10-1000 nM with cytokines (IL-2, IL-15) vs cytokines only (SR1 0), FIG. 1): greatly increased expansion; also recorded: significantly higher | percentages of CD3+CD56− cells (T-cell fraction) (CD3+CD56− cells): less prominent than in control; also recorded: lower than in control cultures | expression of PD-1 (PD-1): reduced expression | expression of CD62L (CD62L): dramatically enhanced expression; also recorded: strongly enhanced expression | homing and engraftment into spleen (% of cells staining with CFSE) (human NK cells): significantly higher; also recorded: increased localization and engraftment | expression of CD200R (CD200R): reduced expression
